One block for each sequence: values may come before it.
Key:
[1] = test system: primary human chondrocytes; experiment: Transfection of primary human chondrocytes, GFP expression by flow cytometry; type: cell-based; details: closed linear DNA:lipid:peptide nanoparticles, 48 h post-transfection
Protocol: (§1) Peptides identified via phage display with affinity toward primary human chondrocytes, and peptides identified in the literature with desirable chondrocyte binding characteristics were synthesised via solid-phase peptide synthetic chemistry in various conformations. A sixteen-lysine tail group was attached using standard synthesis methods (amsbio, UK).
Transfections in primary human chondrocyte cells were performed with a range of peptide:liposome:nucleic acid cargo mass ratios and N/P ratios. Transfections were performed in a 96-well plate at a density of 2000 cells per well seeded 5 days prior to transfection. Charge and mass ratio of components in the transfection complex varied; DNA and mRNA were maintained at a constant mass of 300 ng per well. […] The mass ratio of closed linear DNA:lipid and mRNA:lipid was maintained at 1:3, while the chondrocyte-cell binding peptides were in some cases altered.
(§2) Transfection complexes were formed via electrostatic interaction by vigorous pipetting, before diluting in a final volume of 200 ul per well, with a DNA concentration of 1.5 ng/ul. All dilutions were performed with OptiMEM reduced serum media. Controls included cells with no transfection complexes added (OptiMEM only), along with liposomes encapsulating nucleic acid cargo without peptide.
Transfection complexes were incubated for 30 min at RT before adding to cells. All conditions were performed in triplicate. Cells were incubated at 37° C. for 4 hours, before replacing media with growth media. 48 h post-transfection, the cells were rinsed in PBS, before incubation in 0.05% Trypsin EDTA (Gibco) to detach the cells. 48 h post-transfection, cells were resuspended in PBS for analysis by flow cytometry using the Aligent Novocyte flow cytometer.

[2] = test system: primary human chondrocytes; experiment: Transfection of primary human chondrocytes, luciferase expression; type: cell-based; details: FIG. 3, mRNA:lipid:peptide nanoparticles, DOTMA-DOPE 2:1 + 10% cholesterol, 4 h post-transfection
Protocol: as §1
Transfections in primary human chondrocyte cells were performed with a range of peptide: liposome:nucleic acid cargo mass ratios and N/P ratios. Transfections were performed in a 96-well plate at a density of 2000 cells per well seeded 5 days prior to transfection. Charge and mass ratio of components in the transfection complex varied; DNA and mRNA were maintained at a constant mass of 300 ng per well. The molar ratio of the cationic lipid DOTMA to the phospholipid DOPE was kept at 2:1 (DD 2:1), while cholesterol was added at a molar percentage of 10% of the total lipid content. The mass ratio of closed linear DNA:lipid and mRNA:lipid was maintained at 1:3, while the chondrocyte-cell binding peptides were in some cases altered.
as §2
Transfection complexes were incubated for 30 min at RT before adding to cells. All conditions were performed in triplicate. Cells were incubated at 37° C. for 4 hours, before replacing media with growth media. 48 h post-transfection for DNA and 4 h post-transfection for RNA, the cells were rinsed in PBS, before resuspension in Reporter Lysis buffer (Promega). Plates were incubated at 4° C. for 20 minutes, before −80° C. for 40 minutes. After thawing, luciferase activity was measured following injection of the luciferase assay substrate on the ClarioSTAR plus plate reader (BMG Labtech, Aylesbury, UK). Luciferase expression was normalised to protein content using Pierce BCA Protein Assay, with absorbance measured at 562 nm. Luciferase activity was expressed as Relative Light Units per mg of protein (RLU/mg).

[3] = Biophysical characterisation of nanoparticles by dynamic light scattering (size, PDI); type: physicochemical
Protocol: The size in nm by Dynamic Light Scattering (DLS), zeta potential in mV by Electrophoretic Light Scattering (ELS), and concentration of particles per ml by Multi-Angle Dynamic Light Scattering (MADLS) of the closed linear DNA/mRNA-lipid-peptide nanoparticles was determined using the Zetasizer Ultra (Malvern). Complexes were prepared as before, except formulated in nuclease-free water rather than Opti-MEM. Samples containing 0.7 μg hpDNA were diluted in 1 ml for analysis.

[4] = Ribogreen encapsulation efficiency assay; type: physicochemical; details: FIG. 4; mRNA:lipid:peptide nanoparticles at N/P ratio 3.98
Protocol: Encapsulation efficiency (EE %) was measured using Quant-iT™ RiboGreen™ RNA Assay Kit (Invitrogen™, Thermo Fisher Scientific, Waltham, MA, USA). Briefly, mRNA was mixed with RiboGreen™ in a total volume of 100 ul TE buffer (10 mM Tris-HCl, 1 mM EDTA, pH 7.5) per well of a 96-well plate and incubated for 10 minutes at RT in the absence of light. Lipid and peptide components were each diluted in a volume of 50 ul TE buffer before mixing thoroughly with the mRNA-Ribogreen via pipette. Nanocomplexes were incubated for 30 minutes at RT in the absence of light. Encapsulation efficiency was measured by quantifying the fluorescence (λem=520 nm, λex=480 nm) of RNA encapsulated in nanoparticles vs. the fluorescence of naked mRNA complexed with Ribogreen™ reagent using a fluorimeter (ClarioStar, BMG Labtech).

[5] = FIG. 1, DOTMA-DOPE 2:1 + 10% cholesterol
[6] = FIG. 5, closed linear DNA, DOTMA-DOPE 2:1 + 10% cholesterol
[7] = FIG. 6, mRNA, DOTMA-DOPE 2:1 + 10% cholesterol

luciferase expression ([2]; N/P ratio 3.48): 3.2E+11 RLU/mg protein
luciferase expression ([2]; N/P ratio 4.48): 4E+11 RLU/mg protein
luciferase expression ([2]; N/P ratio 7.48): 3.3E+11 RLU/mg protein
luciferase expression ([2]; N/P ratio 8.48): 2.5E+11 RLU/mg protein
Sequence: KKKKKKKKKKKKKKKKGACDWRVIIPPRPSAC [HC5 C-N]
GFP expression (% of the cells expressing GFP) [1, 5]: 21%
median fluorescence intensity (MFI) [1, 5]: 1E+06
average size by DLS [3, 6]: 100 nm

Sequence: KKKKKKKKKKKKKKKKGACHDSQLEALIKFMC [HC4 C-N]
Polydispersity Index (PDI) [3, 6]: 0.45

Sequence: KKKKKKKKKKKKKKKKGACRLDPTSYLRTFWC [HC3 C-N]
GFP expression (% of the cells expressing GFP) [1, 5]: 9%
median fluorescence intensity (MFI) [1, 5]: 1E+05
average size by DLS [3, 7]: 78 nm
Polydisperse Index (PDI) ([3]; FIG. 6 passage, printed as closed linear DNA, DOTMA-DOPE 2:1 10% cholesterol): 0.37

Sequence: KKKKKKKKKKKKKKKKGADWRVIIPPRPSA [HC5 L-N]
encapsulation efficacy (% of mRNA encapsulated) [4]: 96.86%

Sequence: KKKKKKKKKKKKKKKKGAHDSQLEALIKFM [HC4 L-N]
average size by DLS [3, 7]: 36.65 nm

Sequence: KKKKKKKKKKKKKKKKGARLDPTSYLRTFW [HC3 L-N]
Polydispersity Index (PDI) [3, 6]: 0.2
Polydisperse Index (PDI) [3, 7]: 0.13

Sequence: KKKKKKKKKKKKKKKKRVRRCDWRVIIPPRPSAC [HC5 C-C]
GFP expression (% of the cells expressing GFP) ([1]; FIG. 2, C16-DOPE 2:1 with 10% cholesterol): 24%
average size by DLS [3, 6]: 51.37 nm

Source: patent US20260021197A1, “NANOPARTICLES AND PEPTIDES FOR THE DELIVERY OF CARGOS TO CHONDROCYTES” (4BASEBIO UK LTD, priority 2022, published 2026)
